The text below walks through data of US11331327B2, “Antibacterial use of halogenated salicylanilides” (UNION therapeutics A/S, priority 2014, dated 2022).

“And” between values parts separate entries of the source, which are not always exact repeats. Identical values can stand only once. Like-named read-outs stand apart in the source and are kept apart here. Marks after values point to notes of the source that are not given here.

For series [1] the following is noted: cited from earlier work; for LD50 rats p.o: Table 3.
In the next series the test system is S. aureus strains. The series is described as follows: Minimum Inhibitory Concentration (MIC) assay, Example 1, S. aureus strains. The class given is cell-based. The following applies: Staphylococcus aureus, read-out: Mic100 S. aureus. As for the experimental part:
(§1) Strains were conserved in Luria Bertani (LB) Broth (S. aureus) or Brain Heart Infusion (BHI) (S. pyogenes) supplemented with glycerol 15% (v/v) at −80° C., and reactivated by isolation on LB (S. aureus) or BHI (S. pyogenes) agar plates. Strains were cultivated in Mueller Hinton (MH) Broth-cation adjusted (S. aureus) supplemented with lysed horse blood 2.5% (v/v) (S. pyogenes). All strains were cultivated at 37° C., aerobically for S. aureus strains.
(§2) Bacterial cultures were stopped in their exponential growth phase and plates were inoculated with the approximate concentration of 10^3 cells per well. Plates were incubated at 37° C. for 18 hours (S. aureus) or 24 hours (S. pyogenes). Optical density at a wavelength of 600 nm was measured at the end of the incubation time. […] Experiments were performed at least as triplicate biological replicates with all strains.

For the next series, the system named is S. pyogenes strains. The series is described as follows: Minimum Inhibitory Concentration (MIC) assay, Example 1, S. pyogenes strains. The class given is cell-based, Streptococcus pyogenes. The following applies: Streptococcus pyogenes, read-out: Mic100 S. pyogenes. Here is the method: as §1, §2
Series [2] has as its system MRSA 01, MRSA 15, MRSA 16. The series is described as follows: Mutational frequency evaluation, Example 1. The class given is cell-based, Staphylococcus aureus. The following applies: for Resistance mutation rate at MIC × 1: tested against one strain: MRSA 01; for mutational frequency at MIC×1: text summary of Table 4. As for the experimental part: Adequate dilutions were plated on plates without the compound.
Viable cell growth was enumerated after 48 hours of incubation at 37° C.
Ten replicates were carried out for each strain and fusidic acid, mupirocin and retapamulin were used as controls for the MRSA 01 strain.

The conditions of series [3]: in vivo; cited from earlier work.
For series [4] the following is noted: cited from earlier work.
Setting [5] is: tested against one strain: S. pyogenes 01.

Usually LD50 stands for the dose expected to kill half of the subjects tested. For the compound `Cc1cc(C(C#N)c2ccc(Cl)cc2)c(Cl)cc1NC(=O)c1cc(I)cc(I)c1O` (stereo not drawn) [Closantel, N-[5-chloro-4-[(4-chlorophenyl)cyanomethyl]-2-methylphenyl]-2-hydroxy-3,5-diiodobenzamide], the LD50 rats p.o in series [1] is given as 300 mg/kg. Besides, in series [1] (rats, p.o.), the LD50 was 262 to 342 mg/kg. The MIC was ≤ 1.7 µg/mL and ≤ 2.5 µM in the series on S. aureus strains (S. aureus strains); 12.8 µg/mL and 19 µM with S. pyogenes strains (setting [5]). In addition, in series [2], the “Resistance mutation rate at MIC × 1” value is listed as “= 2 × 10^−8*”. The “mutational frequency at MIC×1” value in series [2] is 2×10^−8.

As to `O=C(Nc1cc(Cl)cc(Cl)c1O)c1c(O)c(Cl)cc(Cl)c1Cl` [Oxyclozanide, 3,3′,5,5′,6-pentachloro-2′-hydroxysalicylanilide], the LD50 rats p.o in series [1] was 980 to 3500 mg/kg. The LD50 in series [1] (rats, p.o.) is 980 to 3519 mg/kg. Moreover, the MIC with S. aureus strains (tested against one strain: MRSA 01) was 1.6 µg/mL and 4 µM; in the series with S. pyogenes strains (setting [5]), 6.4 µg/mL and 15.9 µM. For the same compound, the “safety margin after oral administration” value in series [3] was “Low safety margin”. Besides, the “mutational frequency at MIC×1” value in series [2] is reported as 1×10^−7.

As for `O=C(Nc1ccc(Oc2ccc(Cl)cc2)c(Cl)c1)c1cc(I)cc(I)c1O` [Rafoxanide, 3′-chloro-4′-(p-chlorophenoxy)-3,5-diiodosalicylanilide], the LD50 rats p.o in series [1] was 1500 mg/kg. Besides, the LD50 median in series [1] (rats, p.o., median of studies) is > 1490 mg/kg. The LD50 was 980->2000 mg/kg in series [1] (rats, p.o.) and 232 to 300 mg/kg in series [4] (mice, p.o.). Further, the MIC in the series on S. aureus strains (MRSA) is 0.8 µg/mL and 1.25 µM; in the series with S. pyogenes strains it was 6.4 µg/mL and 10 µM. Moreover, the LD50 mice p.o in series [4] (Table 3) was 270 mg/kg. In addition, in series [2], the “Resistance mutation rate at MIC × 1” value is recorded as “= 5 × 10^−9*”. Besides, the “mutational frequency at MIC×1” value in series [2] is 5×10^−9.
